pEC50, pIC50: −log10 of the molar value. Where two headings read alike, the source gives them in different places.
What was measured:
p53(Y220C)_NUGC-3 = p53(Y220C)_NUGC-3 (Homo sapiens, UniProt P04637, Y220C); experiment: Reporter gene assay (NUGC-3_P53_Luc cells); format: cell-based
Description: NUGC-3_P53_Luc single clonal cell line was established using pGL4.38[luc2P/p53 RE/Hygro] Vector (E365A, promega). NUGC-3_P53_Luc single clonal cells were cultured in 37 °C cell incubator before use. NUGC-3_P53_Luc cells were collected and washed twice with PBS to remove phenol red and then resuspended in medium to a proper concentration. Tested compound dilutions were transferred into 384 well assay plates (PerkinElmer). A desired number of cells was seeded into the assay plate and cultured for 6 hours at 37 °C cell incubator. Britelite plus Luciferase Assay Reagent were added into each well and the luminescence value was recorded on Envision. The percent of activity value of compounds treated wells was normalized between high control and low control. Wells containing cells and Ref-la (10 μM) served as high control, and wells containing cells and same percentage of DMSO served as low control. Activity value (%)=(Luminescence readoutCompound treated−Luminescence readoutLow control)/(Luminescence readoutHigh control−Luminescence readoutLow control)*100%. Then the data were analyzed either by fitting a 4-parameter logistic model or by Excel to calculate EC50 values and the EC50 was the concentration at 50% Activity on the curve.

NUGC-3 (P53 Y220C) = experiment: Cell viability assay (CellTiter-Glo); format: cell-based; settings: NUGC-3 cells, 6 days, 37 °C
Description: Cells were collected and counted. A desired number of cells was seeded into 96-well microplate and cultured in 37 °C cell incubator overnight. Compounds dissolved in cell culture medium were added into cell plate and cultured for 6 days. After balancing CellTiter-Glo reagent and cells at room temperature for 30 min, equal volume of CellTiter-Glo reagents was added to assay plate and shaken for 2 min for cell lysis. The cells were balanced at room temperature for 10 minutes and Luminescence signal was read using Envision. The percent of cell viability for compounds treated wells were normalized between High control and low control. Wells containing cell culture medium and same percentage DMSO served as Low control. Wells containing cells and same percentage DMSO served as High control. Cell viability (%)=(Luminescence readoutCompound treated−Luminescence readoutLow control)/(Luminescence readoutHigh control−Luminescence readoutLow control)*100%. Then the data were analyzed either by fitting a 4-parameter logistic model or by Excel to calculate IC50 values. And the IC50 was the concentration at […] Cell viability on the curve.

p53(Y220C) = biological target: T1, p53(Y220C) (Homo sapiens, UniProt P04637, Y220C); experiment: In vitro DNA binding assay (HTRF), His-p53 Y220C (94-294) with biotinylated p53 consensus DNA; format: biochemical
T1 construct: His-p53 Y220C (94-294) protein
Description: After His-p53 Y220C (94-294) protein was placed with a compound in the present of MAb Anti His-Tb cryptate (Cisbio, Cat. NO. 61HI2TLA) in a 384 well microplate (Greiner) for 15 min at 25 °C, the assay plate was transferred into 27 °C incubator and incubated for 60 min. Biotinalyted p53 consensus DNA (ID: p53-SEQUENCE 2 —F: 5′(biotin)-[…] 3′ —R: 5′ […] 3′) was added into the assay plate in the present of Streptaidin-d2 (Cisbio, Cat. NO. 610SADLF) cryptate (Final concentration: 20 mM HEPES pH=7.4, 75 mM KCl, 1 mM MgCl2, 0.1% (w/v) BSA, 1 mM DTT, 2.5 nM His-P53 Y220C (94-294) protein, 0.33 nM MAb Anti His-Tb cryptate, 2.5 nM Streptaidin-d2 cryptate, 10 nM Biotinalyted DNA) and incubated for another 60 min. Wells containing 2 μM reference compound Ref-1a served as high control, and wells containing same percentage of DMSO served as low control. Homogeneous time-resolved fluorescence (HTRF) signals were read on Tecan Spark multimode microplate reader. HTRF ratios for each individual well were calculated by equation: HTRF ratio=(Signal F665/Signal F620)*1000. The percent of activation of compounds treated wells were normalized between high control and low control (% Activation=(HTRF ratiocompound treated−HTRF ratiolow control)/(HTRF ratiohigh control−HTRF ratiolow control)*100%). Then the data were analyzed either by fitting a 4-parameter logistic model or by Excel to calculate EC50 values. And the EC50 was the concentration at 50% Activation on the curve.

[1] = 6 hours, 37 °C, luciferase, normalized to Ref-1a 10 μM, EC50 = concentration at 50% Activity, read-out: p53(Y220C)_NUGC-3 EC50
[2] = HTRF, 27 °C, His-p53 Y220C (94-294) 2.5 nM, biotinylated DNA 10 nM, normalized to 2 μM Ref-1a, EC50 = concentration at 50% Activation, read-out: p53(Y220C) EC50

Compound | pEC50 (p53(Y220C)_NUGC-3; [1]) | pEC50 (p53(Y220C); [2]) | pEC50 (p53(Y220C)_NUGC-3; read-out: p53(Y220C)_NUGC-3 EC50, 6 hours, 37 °C, luciferase, normalized to Ref-1a 10 μM, EC50 = concentration at 50% Activity) | pEC50 (p53(Y220C)) | pIC50 (NUGC-3 (P53 Y220C); Homo sapiens, 144 h) | pIC50 (NUGC-3 (P53 Y220C))
COc1nc([S@](C)(=N)=O)ccc1NCC#Cc1sc2c(N[C@@H]3CCN(C)C[C@@H]3F)cccc2c1CC(F)(F)F [Example 44, (R)-(5-((3-(7-(((3S,4R)-3-fluoro-1-methylpiperidin-4-yl)amino)-3-(2,2,2-trifluoroethyl)benzo[b]thiophen-2-yl)prop-2-yn-1-yl)amino)-6-methoxypyridin-2-yl)(imino)(methyl)-16-sulfanone] | 7.08 | 7.34 | – | – | 5.87 | –
COc1nc([S@@](C)(=N)=O)ccc1NCC#Cc1sc2c(N[C@@H]3CCN(C)C[C@@H]3F)cccc2c1CC(F)(F)F [Example 45, (S)-(5-((3-(7-(((3S,4R)-3-fluoro-1-methylpiperidin-4-yl)amino)-3-(2,2,2-trifluoroethyl)benzo[b]thiophen-2-yl)prop-2-yn-1-yl)amino)-6-methoxypyridin-2-yl)(imino)(methyl)-16-sulfanone] | 7.02 | 7.19 | – | – | 5.88 | –
COc1cc([S@](=N)(=O)C2COC2)ccc1NCC#Cc1sc2c(N[C@@H]3CCN(C)C[C@@H]3F)cccc2c1CC(F)(F)F [Example 49, (R)-(4-((3-(7-(((3S,4R)-3-fluoro-1-methylpiperidin-4-yl)amino)-3-(2,2,2-trifluoroethyl)benzo[b]thiophen-2-yl)prop-2-yn-1-yl)amino)-3-methoxyphenyl)(imino)(oxetan-3-yl)-16-sulfanone] | 7.19 | 7.29 | – | – | – | 6.12
COc1cc([S@@](=N)(=O)C2COC2)ccc1NCC#Cc1sc2c(N[C@@H]3CCN(C)C[C@@H]3F)cccc2c1CC(F)(F)F [Example 50, (S)-(4-((3-(7-(((3S,4R)-3-fluoro-1-methylpiperidin-4-yl)amino)-3-(2,2,2-trifluoroethyl)benzo[b]thiophen-2-yl)prop-2-yn-1-yl)amino)-3-methoxyphenyl)(imino)(oxetan-3-yl)-16-sulfanone] | 7.12 | 7.60 | – | – | 5.97 | –
COc1cc([S@@](=N)(=O)C2CC2)ccc1NCC#Cc1sc2c(N[C@@H]3CCN(C)C[C@@H]3F)cccc2c1CC(F)(F)F [Example 54, (S)-cyclopropyl(4-((3-(7-(((3S,4R)-3-fluoro-1-methylpiperidin-4-yl)amino)-3-(2,2,2-trifluoroethyl)benzo[b]thiophen-2-yl)prop-2-yn-1-yl)amino)-3-methoxyphenyl)(imino)-16-sulfanone] | 6.84 | 7.24 | – | – | – | 5.98
CN1CC[C@@H](Nc2cccc3c(CC(F)(F)F)c(C#CCNc4ccc(P(C)(C)=O)c5c4C(=O)NC5)sc23)[C@@H](F)C1 [Example 55, 4-(dimethylphosphoryl)-7-((3-(7-(((3S,4R)-3-fluoro-1-methylpiperidin-4-yl)amino)-3-(2,2,2-trifluoroethyl)benzo[b]thiophen-2-yl)prop-2-yn-1-yl)amino)isoindolin-1-one] | 6.71 | 7.51 | – | – | 5.89 | –
COc1c(NCC#Cc2sc3c(N[C@@H]4CCN(C)C[C@@H]4F)cccc3c2CC(F)(F)F)ccc(P(C)(C)=O)c1OC [Example 57, (4-((3-(7-(((3S,4R)-3-fluoro-1-methylpiperidin-4-yl)amino)-3-(2,2,2-trifluoroethyl)benzo[b]thiophen-2-yl)prop-2-yn-1-yl)amino)-2,3-dimethoxyphenyl)dimethylphosphine oxide] | 6.79 | 7.43 | – | – | 6.10 | –

Further lines, with some results ahead:

pEC50 (p53(Y220C)_NUGC-3; [1]) | pEC50 (p53(Y220C); [2]) | pEC50 (p53(Y220C)_NUGC-3; read-out: p53(Y220C)_NUGC-3 EC50, 6 hours, 37 °C, luciferase, normalized to Ref-1a 10 μM, EC50 = concentration at 50% Activity) | pEC50 (p53(Y220C)) | Compound | pIC50 (NUGC-3 (P53 Y220C); Homo sapiens, 144 h) | pIC50 (NUGC-3 (P53 Y220C))
6.80 | 7.25 | – | – | CCOc1c(P(C)(C)=O)ccc(NCC#Cc2sc3c(N[C@@H]4CCN(C)C[C@@H]4F)cccc3c2CC(F)(F)F)c1OC [Example 43, (2-ethoxy-4-((3-(7-(((3S,4R)-3-fluoro-1-methylpiperidin-4-yl)amino)-3-(2,2,2-trifluoroethyl)benzo[b]thiophen-2-yl)prop-2-yn-1-yl)amino)-3-methoxyphenyl)dimethylphosphine oxide] | 6.23 | –
– | – | 6.36 | 7.19 | COc1cc(P(C)(C)=O)ccc1NCC#Cc1sc2c(N[C@@H]3CN4CCC3CC4)cccc2c1CC(F)(F)F [Example 48, (S)-(3-methoxy-4-((3-(7-(quinuclidin-3-ylamino)-3-(2,2,2-trifluoroethyl)benzo[b]thiophen-2-yl)prop-2-yn-1-yl)amino)phenyl)dimethylphosphine oxide] | 5.80 | –
6.89 | 7.41 | – | – | COc1cc([S@](=N)(=O)C2CC2)ccc1NCC#Cc1sc2c(N[C@@H]3CCN(C)C[C@@H]3F)cccc2c1CC(F)(F)F [Example 53, (R)-cyclopropyl(4-((3-(7-(((3S,4R)-3-fluoro-1-methylpiperidin-4-yl)amino)-3-(2,2,2-trifluoroethyl)benzo[b]thiophen-2-yl)prop-2-yn-1-yl)amino)-3-methoxyphenyl)(imino)-16-sulfanone] | – | 6.17
7.21 | 7.35 | – | – | [2H]C([2H])([2H])Oc1nc(P(C)(C)=O)ccc1NCC#Cc1sc2c(N[C@@H]3CCN(C)C[C@@H]3F)cccc2c1CC(F)(F)F [Example 56, (5-((3-(7-(((3S,4R)-3-fluoro-1-methylpiperidin-4-yl)amino)-3-(2,2,2-trifluoroethyl)benzo[b]thiophen-2-yl)prop-2-yn-1-yl)amino)-6-(methoxy-d3)pyridin-2-yl)dimethylphosphine oxide] | 6.37 | –
7.36 | 7.46 | – | – | COc1cc([S@@](C)(=N)=O)ccc1NCC#Cc1sc2c(N[C@H]3CCN(C)C[C@@H]3F)cccc2c1[C@@H](O)C(F)(F)F [Example 58, (S)-(4-((3-(7-(((3S,4S)-3-fluoro-1-methylpiperidin-4-yl)amino)-3-((R)-2,2,2-trifluoro-1-hydroxyethyl)benzo[b]thiophen-2-yl)prop-2-yn-1-yl)amino)-3-methoxyphenyl)(imino)(methyl)-16-sulfanone] | 6.40 | –
6.58 | 6.96 | – | – | COc1cc([S@@](C)(=N)=O)ccc1NCC#Cc1sc2c(N[C@@H]3CCN(C)C[C@H]3F)cccc2c1[C@@H](O)C(F)(F)F [Example 59, (S)-(4-((3-(7-(((3R,4R)-3-fluoro-1-methylpiperidin-4-yl)amino)-3-((R)-2,2,2-trifluoro-1-hydroxyethyl)benzo[b]thiophen-2-yl)prop-2-yn-1-yl)amino)-3-methoxyphenyl)(imino)(methyl)-16-sulfanone] | 5.69 | –
6.55 | 7.13 | – | – | COc1cc([S@@](C)(=N)=O)ccc1NCC#Cc1sc2c(N[C@@H]3CCN(C)C[C@@H]3F)cccc2c1[C@@H](O)C(F)(F)F [Example 60, (S)-(4-((3-(7-(((3S,4R)-3-fluoro-1-methylpiperidin-4-yl)amino)-3-((R)-2,2,2-trifluoro-1-hydroxyethyl)benzo[b]thiophen-2-yl)prop-2-yn-1-yl)amino)-3-methoxyphenyl)(imino)(methyl)-16-sulfanone] | – | 5.74
